Experimental data as given in patent US8236792B2, “Substituted pyrrolidine amides as modulators of the histamine H3 receptor” (Janssen Pharmaceutica NV, priority 2008, dated 2012).

These compounds were tested against human H3 receptor (Homo sapiens, UniProt Q9Y5N1) (assay: H3 Receptor Binding (Human) Method 2, [125I]-iodoproxyfan competitive radioligand binding). Conditions: not given.
Design: expressed in transfected cells

human H3 receptor, sequence (Q9Y5N1 whole entry): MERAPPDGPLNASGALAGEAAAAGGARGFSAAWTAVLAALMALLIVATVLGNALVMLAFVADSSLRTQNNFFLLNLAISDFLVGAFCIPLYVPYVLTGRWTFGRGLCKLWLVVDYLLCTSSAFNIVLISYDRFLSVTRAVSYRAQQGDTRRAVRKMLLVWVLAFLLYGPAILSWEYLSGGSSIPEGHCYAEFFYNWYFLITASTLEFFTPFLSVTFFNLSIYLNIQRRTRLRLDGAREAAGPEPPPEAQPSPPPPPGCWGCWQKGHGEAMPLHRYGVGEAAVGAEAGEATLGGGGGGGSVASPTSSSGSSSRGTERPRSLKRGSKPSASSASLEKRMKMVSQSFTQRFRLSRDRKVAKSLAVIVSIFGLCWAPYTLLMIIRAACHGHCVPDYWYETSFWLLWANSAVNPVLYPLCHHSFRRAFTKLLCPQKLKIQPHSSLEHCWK

Ki	Structure (SMILES)
0.569 µM	CC(=O)N1C[C@H](Oc2cccc(F)c2)C[C@@H]1C(=O)N1CCCN(C2CCC2)CC1 [Example 130]

Same assay, conditions: Method 2; SK-N-MC cell membranes; [125I]-iodoproxyfan 1 nM; apparent Ki; free base or hydrochloride salt; average of results; read-out: Human H3 Ki

Ki	Structure (SMILES)
0.011 µM	O=C(N1CCCN(C2CCC2)CC1)[C@@]1(Cc2ccccc2)CCCN1 [Example 171, (2S)-(2-Benzyl-pyrrolidin-2-yl)-(4-cyclobutyl-[1,4]diazepan-1-yl)-methanone]

Same assay, conditions: read-out: Human H3 Ki

Structure (SMILES)	Ki
CC(C)(C)OC(=O)N1C[C@@H](Oc2ccc(F)cc2)C[C@@H]1C(=O)N1CCCN(C2CC2)CC1 [Example 31, (2R,4S)-2-(4-Cyclopropyl-[1,4]diazepane-1-carbonyl)-4-(4-fluoro-phenoxy)-pyrrolidine-1-carboxylic acid tert-butyl ester]	0.015 µM
Cc1cc(O[C@H]2C[C@H](C(=O)N3CCCN(C4CCC4)CC3)N(C(=O)OC(C)(C)C)C2)ccc1Cl [Example 24, (2R,4S)-4-(4-Chloro-3-methyl-phenoxy)-2-(4-cyclobutyl-[1,4]diazepane-1-carbonyl)-pyrrolidine-1-carboxylic acid tert-butyl ester]	0.004 µM
CC(C)(C)OC(=O)N1C[C@H](O)C[C@@H]1C(=O)N1CCCN(C2CCC2)CC1 [Example 8, (2R,4R)-2-(4-Cyclobutyl-[1,4]diazepane-1-carbonyl)-4-hydroxy-pyrrolidine-1-carboxylic acid tert-butyl Ester]	0.534 µM
CC(C)(C)OC(=O)N1C[C@H](Oc2ccc(F)cc2)C[C@@H]1C(=O)N1CCCN(C2CCC2)CC1 [Example 56, (2R,4R)-2-(4-Cyclobutyl-[1,4]diazepane-1-carbonyl)-4-(4-fluoro-phenoxy)-pyrrolidine-1-carboxylic acid tert-butyl ester]	0.049 µM
O=C([C@H]1C[C@H](Oc2ccc(C(F)(F)F)cc2)CN1)N1CCCN(C2CCC2)CC1 [Example 75, (2R,4S)-4-(4-Trifluoromethyl-phenoxy)-2-(4-cyclobutyl-[1,4]diazepane-1-carbonyl)-pyrrolidine]	0.004 µM
CC(C)(C)OC(=O)N1C[C@@H](Oc2cccc(F)c2)C[C@@H]1C(=O)N1CCC(N2CCCC2)C1 (stereo partly drawn) [Example 39, (2R,4S)-2-([1,3′]Bipyrrolidinyl-1′-carbonyl)-4-(3-fluoro-Phenoxy)-pyrrolidine-1-carboxylic acid tert-butyl ester]	0.043 µM
Cc1ccccc1O[C@@H]1CN[C@@H](C(=O)N2CCCN(C3CCC3)CC2)C1 [Example 77, (2R,4S)-4-(4-o-Tolyloxy)-2-(4-cyclobutyl-[1,4]diazepane-1-carbonyl)-pyrrolidine]	0.003 µM
Cc1ccc(O[C@H]2C[C@H](C(=O)N3CCCN(C4CCC4)CC3)N(C(=O)OC(C)(C)C)C2)cc1 [Example 29, (2R,4S)-2-(4-Cyclobutyl-[1,4]diazepane-1-carbonyl)-4-p-tolyloxy-pyrrolidine-1-carboxylic acid tert-butyl ester]	0.008 µM
CC(=O)N1C[C@@H](O)C[C@@H]1C(=O)N1CCCN(C2CCC2)CC1 [Example 10, (2R,4S)-1-[2-(4-Cyclobutyl-[1,4]diazepane-1-carbonyl)-4-hydroxy-pyrrolidin-1-yl]-ethanone]	0.115 µM
CC(C)(C)OC(=O)N1C[C@H](Oc2ccccn2)C[C@H]1C(=O)N1CCCN(C2CCC2)CC1 (stereo in doubt) [Example 50, (2S,4R)-2-(4-Cyclobutyl-[1,4]diazepane-1-carbonyl)-4-(pyridin-2-yloxy)-pyrrolidine-1-carboxylic acid tert-butyl ester]	0.005 µM
O=C([C@H]1C[C@H](Oc2ccc(F)cc2)CN1CC1CC1)N1CCCN(C2CCC2)CC1 [Example 113, (2R,4S)-1-Cyclopropylmethyl-2-(4-cyclobutyl-[1,4]diazepane-1-carbonyl)-4-(4-fluoro-phenoxy)-pyrrolidine]	0.007 µM
CC(C)(C)OC(=O)N1C[C@H](Oc2cccc(F)c2)C[C@H]1C(=O)N1CCCN(C2CCC2)CC1 [Example 49, (2S,4R)-2-(4-Cyclobutyl-[1,4]diazepane-1-carbonyl)-4-(3-fluoro-phenoxy)-pyrrolidine-1-carboxylic acid tert-butyl ester]	0.006 µM
CC(C)(C)OC(=O)N1C[C@@H](Oc2ccc(F)cc2)C[C@@H]1C(=O)N1CCN(C2CCCC2)CC1 [Example 33, (2R,4S)-2-(4-Cyclopentyl-piperazine-1-carbonyl)-4-(4-fluoro-phenoxy)-pyrrolidine-1-carboxylic acid tert-butyl ester]	0.024 µM
O=C([C@H]1C[C@H](Oc2ccc(F)cc2)CN1)N1CCCN(C2CC2)CC1 [Example 78, (2R,4S)-2-(4-Cyclopropyl-[1,4]diazepane-1-carbonyl)-4-(4-fluoro-phenoxy)-pyrrolidine]	0.02 µM
CC(C)(C)OC(=O)N1C[C@@H](Oc2ccc(C(F)(F)F)cc2)C[C@@H]1C(=O)N1CCCN(C2CCC2)CC1 [Example 28, (2R,4S)-2-(4-Cyclobutyl-[1,4]diazepane-1-carbonyl)-4-(4-trifluoromethyl-phenoxy)-pyrrolidine-1-carboxylic acid tert-butyl ester]	0.007 µM

The next lines start with the values.

Ki	Structure (SMILES)
0.003 µM	CC(=O)N1C[C@@H](Oc2ccccn2)C[C@@H]1C(=O)N1CCCN(C2CCC2)CC1 [Example 132, (2R,4S)-1-[2-(4-Cyclobutyl-[1,4]diazepane-1-carbonyl)-4-(Pyridin-2-yloxy)-pyrrolidin-1-yl]-ethanone]
1.16 µM	CC(=O)N1C[C@@H](Oc2cccc(F)c2)C[C@@H]1C(=O)N1CCCNCC1 [Example 156, (2R,4S)-4-[1-Acetyl-4-(3-fluoro-Phenoxy)-pyrrolidine-2-carbonyl]-[1,4]diazepane]
0.02 µM	CC(C)(C)OC(=O)N1C[C@H](Cc2ccsc2)C[C@H]1C(=O)N1CCCN(C2CCC2)CC1 [Example 176, (2S,4R)-2-(4-Cyclobutyl-[1,4]diazepane-1-carbonyl)-4-thiophen-3-ylmethyl-pyrrolidine-1-carboxylic acid tert-butyl ester]
0.039 µM	CC(C)(C)OC(=O)N1C[C@H](Cc2ccccc2)C[C@H]1C(=O)N1CCCN(C2CCC2)CC1 [Example 173, (2S,4R)-4-Benzyl-2-(4-cyclobutyl-[1,4]diazepane-1-carbonyl)-pyrrolidine-1-carboxylic acid tert-butyl ester]
0.257 µM	CC(C)(C)OC(=O)N1CCC[C@]1(Cc1ccc(F)cc1)C(=O)N1CCCN(C2CCC2)CC1 [Example 165, (2S)-2-(4-Cyclobutyl-[1,4]diazepane-1-carbonyl)-2-(4-fluoro-benzyl)-pyrrolidine-1-carboxylic acid tert-butyl ester]
0.263 µM	O=C([C@@H]1C[C@@H](Cc2ccccc2)CN1)N1CCCN(C2CCC2)CC1 [Example 177, (2S,4R)-(4-Benzyl-pyrrolidin-2-yl)-(4-cyclobutyl-[1,4]diazepan-1-yl)-methanone]
0.06 µM	CC(C)(C)OC(=O)N1CCC[C@]1(Cc1ccc(C(F)(F)F)cc1)C(=O)N1CCCN(C2CCC2)CC1 [Example 166, (2S)-2-(4-Cyclobutyl-[1,4]diazepane-1-carbonyl)-2-(4-trifluoromethyl-benzyl)-pyrrolidine-1-carboxylic acid tert-butyl ester]
0.013 µM	CC(C)(C)OC(=O)N1C[C@@H](OCc2ccc(C#N)cc2)C[C@@H]1C(=O)N1CCCN(C2CCC2)CC1 [Example 149, (2R,4S)-4-(4-Cyano-benzyloxy)-2-(4-cyclobutyl-[1,4]diazepane-1-carbonyl)-pyrrolidine-1-carboxylic acid tert-butyl ester]
